Literature values as cited in patent US20060104967A1, “Method of converting the state of proteins” (priority 2004, published 2006).
*1 amine or outer side, *2 acyl side, *3 side chain or, on linkers, in order; H or OH if unused. Where a SMILES comes first, the peptide text is derived from it. Bridges are numbered along the chain shown (N, C = ends). [ ]: non-standard residue; d: D form. Adda = CO[C@@H](Cc1ccccc1)[C@@H](C)/C=C(C)/C=C/[C@H](N[*:1])[C@H](C)C(=O)[*:2]; dAsp(3S-Me) = C[C@H](C(=O)[*:3])[C@@H](N[*:1])C(=O)[*:2]; d(γGlu) = O=C(O)[C@@H](CCC(=O)[*:2])N[*:1]; NMeDha = C=C(NC)C(=O)O

Molecular target: PP2B
Conditions: read-out: Ki values for PP2B, concentrations of inhibitors where the enzyme activity becomes to half

SMILES	Ki
C=C1[C@@H](O)[C@@H]2O[C@]3(CC[C@H](/C=C/[C@@H](C)[C@@H]4CC(C)=C[C@@]5(O[C@H](C[C@@](C)(O)C(=O)O)CC[C@H]5O)O4)O3)CC[C@H]2O[C@@H]1[C@@H](O)C[C@H](C)[C@H]1O[C@@]2(CCCCO2)CC[C@H]1C [okadaic acid]	5 mM
C=C1C(=O)N[C@H](C)C(=O)N[C@@H](CC(C)C)C(=O)N[C@@H](C(=O)O)[C@H](C)C(=O)N[C@@H](CCCNC(=N)N)C(=O)N[C@@H](/C=C/C(C)=C/[C@H](C)[C@H](Cc2ccccc2)OC)[C@H](C)C(=O)N[C@@H](C(=O)O)CCC(=O)N1C [microcystin LR] (R[Adda][d(γGlu)][NMeDha][dA]L[dAsp(3S-Me)]-OH; lactam N-7)	0.2 mM
